Experimental data taken from ChEMBL document CHEMBL1201861, “Genomics of Drug Sensitity in Cancer screening data, Wellcome Trust Sanger Institute”.
pIC50: −log10 of the molar value.

What was measured:
Assay in all cases: cells
Settings in all cases: Homo sapiens
SCH = type: functional, cell-based
Description: SANGER: Inhibition of human SCH cell growth in a cell viability assay.

NTERA-2-cl-D1 = type: functional, cell-based
Description: SANGER: Inhibition of human NTERA-S-cl-D1 cell growth in a cell viability assay.

KY821 = type: functional, cell-based
Description: SANGER: Inhibition of human KY821 cell growth in a cell viability assay.

EW-13 = type: functional, cell-based
Description: SANGER: Inhibition of human EW-13 cell growth in a cell viability assay.

A498 = type: functional, cell-based
Description: SANGER: Inhibition of human A498 cell growth in a cell viability assay.

KARPAS-45 = type: functional, cell-based
Description: SANGER: Inhibition of human KARPAS-45 cell growth in a cell viability assay.

BB49-HNC = type: functional, cell-based
Description: SANGER: Inhibition of human BB49-HNC cell growth in a cell viability assay.

ETK-1 = type: functional, cell-based
Description: SANGER: Inhibition of human ETK-1 cell growth in a cell viability assay.

HL-60 = type: functional, cell-based
Description: SANGER: Inhibition of human HL-60 cell growth in a cell viability assay.

BE-13 = type: functional, cell-based
Description: SANGER: Inhibition of human BE-13 cell growth in a cell viability assay.

TE-11 = type: functional, cell-based
Description: SANGER: Inhibition of human TE-11 cell growth in a cell viability assay.

KMOE-2 = type: functional, cell-based
Description: SANGER: Inhibition of human KMOE-2 cell growth in a cell viability assay.

DOHH-2 = type: functional, cell-based
Description: SANGER: Inhibition of human DOHH-2 cell growth in a cell viability assay.

LXF-289 cell line = type: functional, cell-based
Description: SANGER: Inhibition of human LXF-289 cell growth in a cell viability assay.

MEG-01 = type: functional, cell-based
Description: SANGER: Inhibition of human MEG-01 cell growth in a cell viability assay.

KNS-42 = type: functional, cell-based
Description: SANGER: Inhibition of human KNS-42 cell growth in a cell viability assay.

MHH-NB-11 = type: functional, cell-based
Description: SANGER: Inhibition of human MHH-NB-11 cell growth in a cell viability assay.

NCI-H82 = type: functional, cell-based
Description: SANGER: Inhibition of human NCI-H82 cell growth in a cell viability assay.

CTV-1 = type: functional, cell-based
Description: SANGER: Inhibition of human CTV-1 cell growth in a cell viability assay.

SNU-5 = type: functional, cell-based
Description: SANGER: Inhibition of human NCI-SNU-5 cell growth in a cell viability assay.

BV-173 = type: functional, cell-based
Description: SANGER: Inhibition of human BV-173 cell growth in a cell viability assay.

ES4 = type: functional, cell-based
Description: SANGER: Inhibition of human ES4 cell growth in a cell viability assay.

OCUB-M = type: functional, cell-based
Description: SANGER: Inhibition of human OCUB-M cell growth in a cell viability assay.

C2BBe1 = type: functional, cell-based
Description: SANGER: Inhibition of human C2BBe1 cell growth in a cell viability assay.

MOLT-16 = type: functional, cell-based
Description: SANGER: Inhibition of human MOLT-16 cell growth in a cell viability assay.

SK-UT-1 = type: functional, cell-based
Description: SANGER: Inhibition of human SK-UT-1 cell growth in a cell viability assay.

C8166 = type: functional, cell-based
Description: SANGER: Inhibition of human C8166 cell growth in a cell viability assay.

SK-LMS-1 = type: functional, cell-based
Description: SANGER: Inhibition of human SK-LMS-1 cell growth in a cell viability assay.

A3-KAW = type: functional, cell-based
Description: SANGER: Inhibition of human A3-KAW cell growth in a cell viability assay.

NOMO-1 = type: functional, cell-based
Description: SANGER: Inhibition of human NOMO-1 cell growth in a cell viability assay.

RCC10RGB = type: functional, cell-based
Description: SANGER: Inhibition of human RCC10RGB cell growth in a cell viability assay.

MFM-223 = type: functional, cell-based
Description: SANGER: Inhibition of human MFM-223 cell growth in a cell viability assay.

A704 = type: functional, cell-based
Description: SANGER: Inhibition of human A704 cell growth in a cell viability assay.

TE-10 = type: functional, cell-based
Description: SANGER: Inhibition of human TE-10 cell growth in a cell viability assay.

Mo = type: functional, cell-based
Description: SANGER: Inhibition of human Mo-T cell growth in a cell viability assay.

LNCaP-Clone-FGC = type: functional, cell-based
Description: SANGER: Inhibition of human LNCaP-Clone-FGC cell growth in a cell viability assay.

8-MG-BA = type: functional, cell-based
Description: SANGER: Inhibition of human 8-MG-BA cell growth in a cell viability assay.

D-263MG = type: functional, cell-based
Description: SANGER: Inhibition of human D-263MG cell growth in a cell viability assay.

TE-6 = type: functional, cell-based
Description: SANGER: Inhibition of human TE-6 cell growth in a cell viability assay.

COR-L88 = type: functional, cell-based
Description: SANGER: Inhibition of human COR-L88 cell growth in a cell viability assay.

LB1047-RCC = type: functional, cell-based
Description: SANGER: Inhibition of human LB1047-RCC cell growth in a cell viability assay.

A388 = type: functional, cell-based
Description: SANGER: Inhibition of human A388 cell growth in a cell viability assay.

KM12 = type: functional, cell-based
Description: SANGER: Inhibition of human KM12 cell growth in a cell viability assay.

COLO-824 = type: functional, cell-based
Description: SANGER: Inhibition of human COLO-824 cell growth in a cell viability assay.

NCI-H1304 = type: functional, cell-based
Description: SANGER: Inhibition of human NCI-H1304 cell growth in a cell viability assay.

RH-1 = type: functional, cell-based
Description: SANGER: Inhibition of human RH-1 cell growth in a cell viability assay.

KE-37 = type: functional, cell-based
Description: SANGER: Inhibition of human KE-37 cell growth in a cell viability assay.

EW-1 = type: functional, cell-based
Description: SANGER: Inhibition of human EW-1 cell growth in a cell viability assay.

HEL = type: functional, cell-based
Description: SANGER: Inhibition of human HEL cell growth in a cell viability assay.

DSH1 = type: functional, cell-based
Description: SANGER: Inhibition of human DSH1 cell growth in a cell viability assay.

KM-H2 = type: functional, cell-based
Description: SANGER: Inhibition of human KM-H2 cell growth in a cell viability assay.

HuTu80 = type: functional, cell-based, HUTU-80
Description: SANGER: Inhibition of human HUTU-80 cell growth in a cell viability assay.

GT3TKB = type: functional, cell-based
Description: SANGER: Inhibition of human GT3TKB cell growth in a cell viability assay.

COLO-684 = type: functional, cell-based
Description: SANGER: Inhibition of human COLO-684 cell growth in a cell viability assay.

BT-474 = type: functional, cell-based
Description: SANGER: Inhibition of human BT-474 cell growth in a cell viability assay.

IST-MEL1 = type: functional, cell-based
Description: SANGER: Inhibition of human IST-MEL1 cell growth in a cell viability assay.

LB831-BLC = type: functional, cell-based
Description: SANGER: Inhibition of human LB831-BLC cell growth in a cell viability assay.

LAMA-84 = type: functional, cell-based
Description: SANGER: Inhibition of human LAMA-84 cell growth in a cell viability assay.

OS-RC-2 = type: functional, cell-based
Description: SANGER: Inhibition of human OS-RC-2 cell growth in a cell viability assay.

KS-1 = type: functional, cell-based
Description: SANGER: Inhibition of human KS-1 cell growth in a cell viability assay.

ES5 = type: functional, cell-based
Description: SANGER: Inhibition of human ES5 cell growth in a cell viability assay.

MMAC-SF = type: functional, cell-based
Description: SANGER: Inhibition of human MMAC-SF cell growth in a cell viability assay.

JAR = type: functional, cell-based
Description: SANGER: Inhibition of human JAR cell growth in a cell viability assay.

L-428 = type: functional, cell-based
Description: SANGER: Inhibition of human L-428 cell growth in a cell viability assay.

CCRF-CEM = type: functional, cell-based
Description: SANGER: Inhibition of human CCRF-CEM cell growth in a cell viability assay.

MN-60 = type: functional, cell-based
Description: SANGER: Inhibition of human MN-60 cell growth in a cell viability assay.

## Cn1cc(/C=C2\C(=O)Nc3cccnc32)c2ccccc21
SCH
  pIC50: < 5.70
NTERA-2-cl-D1
  pIC50: < 5.70
KY821
  pIC50: < 5.70
EW-13
  pIC50: < 5.70
A498
  pIC50: < 5.70
KARPAS-45
  pIC50: < 5.70
BB49-HNC
  pIC50: < 5.70
ETK-1
  pIC50: < 5.70
HL-60
  pIC50: < 5.70
BE-13
  pIC50: < 5.70
TE-11
  pIC50: < 5.70
KMOE-2
  pIC50: < 5.70
DOHH-2
  pIC50: < 5.70
LXF-289 cell line
  pIC50: < 5.70
MEG-01
  pIC50: < 5.70
KNS-42
  pIC50: < 5.70
MHH-NB-11
  pIC50: < 5.70
NCI-H82
  pIC50: < 5.70
CTV-1
  pIC50: < 5.70
SNU-5
  pIC50: < 5.70
BV-173
  pIC50: < 5.70
ES4
  pIC50: < 5.70
OCUB-M
  pIC50: < 5.70
C2BBe1
  pIC50: < 5.70
MOLT-16
  pIC50: < 5.70
SK-UT-1
  pIC50: < 5.70
C8166
  pIC50: < 5.70
SK-LMS-1
  pIC50: < 5.70
A3-KAW
  pIC50: < 5.70
NOMO-1
  pIC50: < 5.70
RCC10RGB
  pIC50: < 5.70
MFM-223
  pIC50: < 5.70
A704
  pIC50: < 5.70
TE-10
  pIC50: < 5.70
Mo
  pIC50: < 5.70
LNCaP-Clone-FGC
  pIC50: < 5.70
8-MG-BA
  pIC50: < 5.70
D-263MG
  pIC50: < 5.70
TE-6
  pIC50: < 5.70
COR-L88
  pIC50: < 5.70
LB1047-RCC
  pIC50: < 5.70
A388
  pIC50: < 5.70
KM12
  pIC50: 5.71
COLO-824
  pIC50: < 5.70
NCI-H1304
  pIC50: < 5.70
RH-1
  pIC50: < 5.70
KE-37
  pIC50: < 5.70
EW-1
  pIC50: < 5.70
HEL
  pIC50: < 5.70
DSH1
  pIC50: < 5.70
KM-H2
  pIC50: < 5.70
HuTu80
  pIC50: < 5.70
GT3TKB
  pIC50: < 5.70
COLO-684
  pIC50: < 5.70
BT-474
  pIC50: < 5.70
IST-MEL1
  pIC50: < 5.70
LB831-BLC
  pIC50: < 5.70
LAMA-84
  pIC50: < 5.70
OS-RC-2
  pIC50: < 5.70
KS-1
  pIC50: < 5.70
ES5
  pIC50: < 5.70
MMAC-SF
  pIC50: < 5.70
JAR
  pIC50: 6.01
L-428
  pIC50: < 5.70
CCRF-CEM
  pIC50: < 5.70
MN-60
  pIC50: < 5.70

## Fc1cc(-c2cc[nH]/c(=N/c3ccc(-n4cnc(N5CCOCC5)n4)cc3)n2)cc(N2CCOCC2)c1
SCH
  pIC50: 5.49
NTERA-2-cl-D1
  pIC50: 6.50
KY821
  pIC50: < 5.29
EW-13
  pIC50: 6.53
A498
  pIC50: 6.77
KARPAS-45
  pIC50: 6.10
BB49-HNC
  pIC50: < 5.29
ETK-1
  pIC50: 5.98
HL-60
  pIC50: 6.26
BE-13
  pIC50: 5.96
TE-11
  pIC50: 5.62
KMOE-2
  pIC50: 5.97
DOHH-2
  pIC50: 6.15
LXF-289 cell line
  pIC50: 6.10
MEG-01
  pIC50: 6.17
KNS-42
  pIC50: 5.96
MHH-NB-11
  pIC50: 6.03
NCI-H82
  pIC50: < 5.29
CTV-1
  pIC50: 6.39
SNU-5
  pIC50: < 5.29
BV-173
  pIC50: 6.13
ES4
  pIC50: 5.86
OCUB-M
  pIC50: 5.52
C2BBe1
  pIC50: 6.12
MOLT-16
  pIC50: 6.13
SK-UT-1
  pIC50: 7.21
C8166
  pIC50: 6.35
SK-LMS-1
  pIC50: 6.34
A3-KAW
  pIC50: 6.53
NOMO-1
  pIC50: 6.33
RCC10RGB
  pIC50: 6.05
MFM-223
  pIC50: < 5.29
A704
  pIC50: 6.36
TE-10
  pIC50: 6.52
Mo
  pIC50: 5.78
LNCaP-Clone-FGC
  pIC50: 6.04
8-MG-BA
  pIC50: 6.93
D-263MG
  pIC50: 6.14
TE-6
  pIC50: 5.70
COR-L88
  pIC50: 5.59
LB1047-RCC
  pIC50: 6.40
A388
  pIC50: 5.71
KM12
  pIC50: 6.67
COLO-824
  pIC50: 6.20
NCI-H1304
  pIC50: 5.84
RH-1
  pIC50: 6.04
KE-37
  pIC50: 6.54
EW-1
  pIC50: 6.26
HEL
  pIC50: 6.26
DSH1
  pIC50: 6.15
KM-H2
  pIC50: 5.87
HuTu80
  pIC50: 5.37
GT3TKB
  pIC50: 6.52
COLO-684
  pIC50: 6.26
BT-474
  pIC50: 5.95
IST-MEL1
  pIC50: 6.05
LB831-BLC
  pIC50: 6.38
LAMA-84
  pIC50: 5.53
OS-RC-2
  pIC50: 6.41
KS-1
  pIC50: 6.80
ES5
  pIC50: < 5.29
MMAC-SF
  pIC50: 5.61
JAR
  pIC50: 5.48
L-428
  pIC50: 6.19
CCRF-CEM
  pIC50: 6.44
MN-60
  pIC50: 6.05
